Source: patent US11420958B2, “Aryl and heteroaryl substituted indole compounds” (BRISTOL-MYERS SQUIBB COMPANY, priority 2017, dated 2022)

Columns and labels:
Format in all cases: cell-based
[1] = target: human TLR7 (Homo sapiens (Human), UniProt Q9NYK1); test: TLR7 inhibition reporter assay (HEK-Blue, SEAP); conditions: HEK-Blue cells overexpressing human TLR7, gardiquimod 7.5 μM stimulation
Method in brief: (§1)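 Cells are treated with compound over a 0.05 nM–50 μM final range for 30 min at room temperature before agonist addition: gardiquimod at 7.5 μM for TLR7, R848 at 15.9 μM for TLR8, ODN2006 at 5 nM for TLR9. SEAP is measured after 22 h at 37 °C.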

[2] = target: human TLR8 (Homo sapiens (Human), UniProt Q9NR97); test: TLR8 inhibition reporter assay (HEK-Blue, SEAP); conditions: HEK-Blue cells overexpressing human TLR8, R848 15.9 μM stimulation
human TLR8, sequence (Q9NR97 27-1041): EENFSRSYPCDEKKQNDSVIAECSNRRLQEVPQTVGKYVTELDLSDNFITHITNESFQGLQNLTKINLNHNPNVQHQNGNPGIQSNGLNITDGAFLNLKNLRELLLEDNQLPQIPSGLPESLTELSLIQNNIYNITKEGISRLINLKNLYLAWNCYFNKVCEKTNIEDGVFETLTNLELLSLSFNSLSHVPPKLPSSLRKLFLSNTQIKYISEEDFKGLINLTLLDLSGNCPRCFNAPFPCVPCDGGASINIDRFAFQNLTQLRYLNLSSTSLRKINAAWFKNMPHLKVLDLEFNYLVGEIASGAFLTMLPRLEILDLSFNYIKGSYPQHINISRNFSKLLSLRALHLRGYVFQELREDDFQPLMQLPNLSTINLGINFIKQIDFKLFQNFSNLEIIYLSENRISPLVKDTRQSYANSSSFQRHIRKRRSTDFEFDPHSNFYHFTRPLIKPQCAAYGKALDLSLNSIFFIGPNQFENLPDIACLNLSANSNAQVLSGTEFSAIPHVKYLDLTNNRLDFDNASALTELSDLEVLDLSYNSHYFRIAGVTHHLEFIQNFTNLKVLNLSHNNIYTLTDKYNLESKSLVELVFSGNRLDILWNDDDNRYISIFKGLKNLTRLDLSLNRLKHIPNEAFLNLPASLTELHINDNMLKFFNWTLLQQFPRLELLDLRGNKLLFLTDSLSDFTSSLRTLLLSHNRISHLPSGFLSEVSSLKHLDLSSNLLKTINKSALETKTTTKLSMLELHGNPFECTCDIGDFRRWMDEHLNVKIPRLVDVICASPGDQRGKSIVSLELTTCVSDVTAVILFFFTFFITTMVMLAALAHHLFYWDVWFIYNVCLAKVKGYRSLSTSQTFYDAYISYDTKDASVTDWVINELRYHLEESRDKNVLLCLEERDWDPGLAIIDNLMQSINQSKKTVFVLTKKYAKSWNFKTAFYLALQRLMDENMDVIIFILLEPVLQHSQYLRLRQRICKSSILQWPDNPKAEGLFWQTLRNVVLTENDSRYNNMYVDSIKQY
Method in brief: as §1

[3] = target: human TLR9 (Homo sapiens (Human), UniProt Q9NR96); test: TLR9 inhibition reporter assay (HEK-Blue, SEAP); conditions: HEK-Blue cells overexpressing human TLR9, ODN2006 5 nM stimulation
human TLR9, sequence (Q9NR96 26-1032): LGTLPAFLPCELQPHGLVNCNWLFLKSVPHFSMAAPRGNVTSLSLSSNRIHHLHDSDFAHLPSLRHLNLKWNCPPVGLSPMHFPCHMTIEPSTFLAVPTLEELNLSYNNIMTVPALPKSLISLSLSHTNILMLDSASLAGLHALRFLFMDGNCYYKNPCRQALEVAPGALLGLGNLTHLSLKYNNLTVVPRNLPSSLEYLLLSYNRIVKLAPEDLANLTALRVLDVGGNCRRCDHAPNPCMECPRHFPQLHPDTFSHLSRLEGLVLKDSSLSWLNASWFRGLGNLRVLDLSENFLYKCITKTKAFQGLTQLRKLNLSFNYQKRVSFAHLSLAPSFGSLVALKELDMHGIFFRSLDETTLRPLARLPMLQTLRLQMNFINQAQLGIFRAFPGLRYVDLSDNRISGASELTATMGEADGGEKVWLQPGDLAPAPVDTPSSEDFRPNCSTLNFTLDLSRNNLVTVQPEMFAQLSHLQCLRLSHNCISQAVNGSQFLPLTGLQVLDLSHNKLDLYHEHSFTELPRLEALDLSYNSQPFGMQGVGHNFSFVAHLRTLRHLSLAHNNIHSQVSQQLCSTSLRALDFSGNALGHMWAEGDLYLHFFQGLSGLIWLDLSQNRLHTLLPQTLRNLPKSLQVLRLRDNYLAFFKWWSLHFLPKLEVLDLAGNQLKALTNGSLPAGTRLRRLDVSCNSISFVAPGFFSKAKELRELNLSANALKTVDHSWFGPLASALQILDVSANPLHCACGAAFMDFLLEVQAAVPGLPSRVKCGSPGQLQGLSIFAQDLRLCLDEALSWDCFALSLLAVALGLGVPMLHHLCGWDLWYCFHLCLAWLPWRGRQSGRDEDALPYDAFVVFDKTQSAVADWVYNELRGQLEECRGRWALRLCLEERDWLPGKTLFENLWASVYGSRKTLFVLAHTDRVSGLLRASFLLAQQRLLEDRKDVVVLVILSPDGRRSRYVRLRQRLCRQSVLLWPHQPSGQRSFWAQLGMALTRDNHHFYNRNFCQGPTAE
Method in brief: as §1

human TLR7, sequence (Q9NYK1 27-1049): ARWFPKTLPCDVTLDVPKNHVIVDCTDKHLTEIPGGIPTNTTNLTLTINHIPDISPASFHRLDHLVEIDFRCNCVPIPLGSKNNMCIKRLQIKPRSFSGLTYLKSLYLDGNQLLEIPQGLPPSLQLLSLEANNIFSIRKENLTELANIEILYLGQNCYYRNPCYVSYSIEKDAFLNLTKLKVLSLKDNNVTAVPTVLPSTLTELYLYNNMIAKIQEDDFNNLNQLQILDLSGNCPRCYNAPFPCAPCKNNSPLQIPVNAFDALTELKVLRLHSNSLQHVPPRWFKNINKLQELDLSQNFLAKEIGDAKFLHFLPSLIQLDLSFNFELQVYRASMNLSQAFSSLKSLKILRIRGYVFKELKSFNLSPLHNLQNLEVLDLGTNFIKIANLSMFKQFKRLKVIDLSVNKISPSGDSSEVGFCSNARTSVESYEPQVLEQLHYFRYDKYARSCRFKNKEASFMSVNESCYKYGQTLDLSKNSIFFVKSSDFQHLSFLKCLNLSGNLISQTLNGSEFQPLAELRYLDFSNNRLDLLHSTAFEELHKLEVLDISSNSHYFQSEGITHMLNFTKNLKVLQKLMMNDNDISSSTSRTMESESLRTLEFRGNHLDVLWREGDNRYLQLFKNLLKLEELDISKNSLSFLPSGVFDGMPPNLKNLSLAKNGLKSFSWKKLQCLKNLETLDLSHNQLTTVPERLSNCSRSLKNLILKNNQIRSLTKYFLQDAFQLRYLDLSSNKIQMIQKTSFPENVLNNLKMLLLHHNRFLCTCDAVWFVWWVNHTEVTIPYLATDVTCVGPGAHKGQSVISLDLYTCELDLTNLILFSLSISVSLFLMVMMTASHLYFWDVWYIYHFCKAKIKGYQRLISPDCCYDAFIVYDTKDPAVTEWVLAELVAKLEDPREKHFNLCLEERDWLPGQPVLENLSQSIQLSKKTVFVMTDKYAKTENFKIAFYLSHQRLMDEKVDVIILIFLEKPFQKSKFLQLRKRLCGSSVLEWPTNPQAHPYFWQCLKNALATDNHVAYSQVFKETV

| Compound | IC50 [1] [nM] | IC50 [2] [nM] | IC50 [3] [nM] |
| --- | --- | --- | --- |
| CNc1ccc(-c2ccc3[nH]c(-c4ccnc(C)c4)c(C(C)C)c3c2)cn1 [Example 293, 5-(3-isopropyl-2-(2-methylpyridin-4-yl)-1H-indol-5-yl)-N-methylpyridin-2-amine] | 67 | 9.8 | 39700 |
| Cc1cc(-c2[nH]c3ccc(-c4ccc(NC(=O)C(F)(F)F)nc4)cc3c2C(C)C)ccn1 [Example 295, 2,2,2-trifluoro-N-(5-(3-isopropyl-2-(2-methylpyridin-4-yl)-1H-indol-5-yl)pyridin-2-yl)acetamide] | 11 | 2.7 | 17900 |
| Cc1cc(-c2[nH]c3ccc(-c4nnc(C5CN6CCC5CC6)o4)cc3c2C(C)C)cc(C)n1 (stereo not drawn) [Example 296, 2-(2-(2,6-dimethylpyridin-4-yl)-3-isopropyl-1H-indol-5-yl)-5-(quinuclidin-3-yl)-1,3,4-oxadiazole] | 4.8 | 1.7 | 310 |
| Cc1cc(-c2[nH]c3ccc(-c4nnc(C5CN6CCC5CC6)o4)cc3c2C(C)C)cc(C)n1 (stereo not drawn) [Example 297, 2-(2-(2,6-dimethylpyridin-4-yl)-3-isopropyl-1H-indol-5-yl)-5-(quinuclidin-3-yl)-1,3,4-oxadiazole] | 6.2 | 3.1 | 111 |
| Cc1cc(-c2[nH]c3ccc(-c4nnc(C5CCCN(C(C)C)C5)o4)cc3c2C(C)C)ccn1 (stereo not drawn) [Example 298, 2-(3-isopropyl-2-(2-methylpyridin-4-yl)-1H-indol-5-yl)-5-(1-isopropylpiperidin-3-yl)-1,3,4-oxadiazole] | 25 | 2.7 | 437 |
| Cc1cc(-c2[nH]c3ccc(-c4ccnc(N5CCN(C(C)C)CC5)c4)cc3c2C(C)C)ccn1 [Example 299, 3-isopropyl-5-(2-(4-isopropylpiperazin-1-yl)pyridin-4-yl)-2-(2-methylpyridin-4-yl)-1H-indole] | 119 | 11 | 1480 |
| CCN(CCN(C)C)C(=O)c1nnc(-c2ccc3[nH]c(-c4cc(C)nc(C)c4)c(C(C)C)c3c2)o1 [Example 300, N-(2-(dimethylamino)ethyl)-5-(2-(2,6-dimethylpyridin-4-yl)-3-isopropyl-1H-indol-5-yl)-N-ethyl-1,3,4-oxadiazole-2-carboxamide] | 10 | 2 | 346 |
| Cc1cc(-c2[nH]c3ccc(-c4ccc(N5CCN(C)CC5)nc4)cc3c2C(C)C)cc(C)n1 [Example 301, 2-(2,6-dimethylpyridin-4-yl)-3-isopropyl-5-(6-(4-methylpiperazin-1-yl)pyridin-3-yl)-1H-indole] | 5.2 | 3.6 | 432 |
| Cc1cc(-c2[nH]c3ccc(-c4cc(NC(=O)OC(C)(C)C)c5nccn5c4)cc3c2C(C)C)cc(C)n1 [Example 303, tert-butyl (6-(2-(2,6-dimethylpyridin-4-yl)-3-isopropyl-1H-indol-5-yl)imidazo[1,2-a]pyridin-8-yl)carbamate] | 172 | 163 | 33400 |
| Cc1cc(-c2[nH]c3ccc(-c4cccnc4)cc3c2C(C)C)cc(C)n1 [Example 304, 2-(2,6-dimethylpyridin-4-yl)-3-isopropyl-5-(pyridin-3-yl)-1H-indole] | 63 | 69 | 23000 |
| Cc1cc(-c2[nH]c3ccc(-c4cc5c(s4)CN(C(=O)CN(C)C)CC5)cc3c2C(C)C)ccn1 [Example 305, 2-(dimethylamino)-1-(2-(3-isopropyl-2-(2-methylpyridin-4-yl)-1H-indol-5-yl)-4,7-dihydrothieno[2,3-c]pyridin-6(5H)-yl)ethan-1-one] | 21 | 13 | 4110 |
| Cc1cc(-c2[nH]c3ccc(-c4ccc(N5CCN(C(C)C)CC5)nc4)cc3c2C(C)C)cc(C)n1 [Example 306, 2-(2,6-dimethylpyridin-4-yl)-3-isopropyl-5-(6-(4-isopropylpiperazin-1-yl)pyridin-3-yl)-1H-indole] | 4.8 | 4.8 | 289 |
| Cc1cc(-c2[nH]c3ccc(-c4cnc(N)cn4)cc3c2C(C)C)cc(C)n1 [Example 307, 5-(2-(2,6-dimethylpyridin-4-yl)-3-isopropyl-1H-indol-5-yl)pyrazin-2-amine] | 11 | 18 | 21100 |
| Cc1cc(-c2[nH]c3ccc(-c4nc5c(s4)CNCC5)cc3c2C(C)C)cc(C)n1 [Example 308, 2-(2-(2,6-dimethylpyridin-4-yl)-3-isopropyl-1H-indol-5-yl)-4,5,6,7-tetrahydrothiazolo[5,4-c]pyridine] | 2.6 | 0.5 | 365 |
| Cc1cc(-c2[nH]c3ccc(-c4nc5c(s4)CN(CC(=O)N(C)C)CC5)cc3c2C(C)C)cc(C)n1 [Example 309, 2-(2-(2-(2,6-dimethylpyridin-4-yl)-3-isopropyl-1H-indol-5-yl)-6,7-dihydrothiazolo[5,4-c]pyridin-5(4H)-yl)-N,N-dimethylacetamide] | 24 | 3.5 | 5620 |
| Cc1cc(-c2[nH]c3ccc(-c4cc5c(s4)CN(CC(=O)N(C)C)CC5)cc3c2C(C)C)ccn1 [Example 311, 2-(2-(3-isopropyl-2-(2-methylpyridin-4-yl)-1H-indol-5-yl)-4,7-dihydrothieno[2,3-c]pyridin-6(5H)-yl)-N,N-dimethylacetamide] | 146 | 24 | 3350 |
| Cc1cc(-c2[nH]c3ccc(-c4nnc(C5CCCN(C(C)C)C5)o4)cc3c2C(C)C)ccn1 (stereo not drawn) [Example 312, 2-(3-isopropyl-2-(2-methylpyridin-4-yl)-1H-indol-5-yl)-5-(1-isopropylpiperidin-3-yl)-1,3,4-oxadiazole] | 36 | 2.4 | 633 |
| Cc1cc(-c2[nH]c3ccc(-c4ccc(C(=O)N5CCC(N(C)C)CC5)cc4)cc3c2C(C)C)ccn1 [Example 313, (4-(dimethylamino)piperidin-1-yl)(4-(3-isopropyl-2-(2-methylpyridin-4-yl)-1H-indol-5-yl)phenyl)methanone] | 13 | 4.7 | 326 |
| Cc1cc(-c2[nH]c3ccc(-c4nnc(C5CCCN(C(C)C)C5)o4)cc3c2CC(F)F)cc(C)n1 (stereo not drawn) [Example 314, 2-(3-(2,2-difluoroethyl)-2-(2,6-dimethylpyridin-4-yl)-1H-indol-5-yl)-5-(1-isopropylpiperidin-3-yl)-1,3,4-oxadiazole] | 43 | 11 | 106 |
| CNC(=O)CN1CCc2cc(-c3ccc4[nH]c(-c5ccnc(C)c5)c(C(C)C)c4c3)sc2C1 [Example 315, 2-(2-(3-isopropyl-2-(2-methylpyridin-4-yl)-1H-indol-5-yl)-4,7-dihydrothieno[2,3-c]pyridin-6(5H)-yl)-N-methylacetamide] | 93 | 17 | 47400 |
| CNC(=O)c1ccc(-c2ccc3[nH]c(-c4cc(C)nc(C)c4)c(C(C)C)c3c2)cn1 [Example 316, 5-(2-(2,6-dimethylpyridin-4-yl)-3-isopropyl-1H-indol-5-yl)-N-methylpicolinamide] | 28 | 65 | > 50000 |
| Cc1cc(-c2[nH]c3ccc(-c4ccc(C(N)=O)nc4)cc3c2C(C)C)cc(C)n1 [Example 317, 5-(2-(2,6-dimethylpyridin-4-yl)-3-isopropyl-1H-indol-5-yl)picolinamide] | 7.7 | 26 | > 50000 |
| Cc1cc(-c2[nH]c3ccc(-c4nnc(N)o4)cc3c2C(C)C)cc(C)n1 [Example 318, 5-(2-(2,6-dimethylpyridin-4-yl)-3-isopropyl-1H-indol-5-yl)-1,3,4-oxadiazol-2-amine] | 30 | 34 | 6360 |
| Cc1cc(-c2[nH]c3ccc(-c4ccnc(N5CCN(C)CC5)c4)cc3c2C(C)C)cc(C)n1 [Example 319, 2-(2,6-dimethylpyridin-4-yl)-3-isopropyl-5-(2-(4-methylpiperazin-1-yl)pyridin-4-yl)-1H-indole] | 7.1 | 9.7 | 517 |
| Cc1cc(-c2[nH]c3ccc(-c4ccnc(N5CCNCC5)c4)cc3c2C(C)C)cc(C)n1 [Example 320, 2-(2,6-dimethylpyridin-4-yl)-3-isopropyl-5-(2-(piperazin-1-yl)pyridin-4-yl)-1H-indole] | 71 | 86 | 2970 |
| Cc1cc(-c2[nH]c3ccc(-c4ccc(C(=O)N5CCC(NC(C)C)CC5)cc4)cc3c2C(C)C)ccn1 [Example 321, (4-(3-isopropyl-2-(2-methylpyridin-4-yl)-1H-indol-5-yl)phenyl)(4-(isopropylamino)piperidin-1-yl)methanone] | 37 | 17 | 739 |
| Cc1cc(-c2[nH]c3ccc(-c4ccc(CO)nc4)cc3c2C(C)C)cc(C)n1 [Example 322, (5-(2-(2,6-dimethylpyridin-4-yl)-3-isopropyl-1H-indol-5-yl)pyridin-2-yl)methanol] | 13 | 27 | 45700 |
| Cc1cc(-c2[nH]c3ccc(-c4nnc(C5CCCNC5)[nH]4)cc3c2C(C)C)cc(C)n1 (stereo not drawn) [Example 323, 2-(2,6-dimethylpyridin-4-yl)-3-isopropyl-5-(5-(piperidin-3-yl)-4H-1,2,4-triazol-3-yl)-1H-indole] | 13 | 10 | 322 |
| Cc1cc(-c2[nH]c3ccc(-c4cc5c(s4)CNCC5)cc3c2C(C)C)cc(C)n1 [Example 324, 2-(2-(2,6-dimethylpyridin-4-yl)-3-isopropyl-1H-indol-5-yl)-4,5,6,7-tetrahydrothieno[2,3-c]pyridine] | 2.6 | 1.2 | 438 |
